Results as given in US20220387417A1, “Pharmaceutical Combination and Use Thereof” (CSTONE PHARMACEUTICALS (SUZHOU) CO., LTD., priority 2019, published 2022).
Values joined by “and” are separate entries in the source; they are usually repeats but may differ in a detail not shown here. Equal entries are not always repeated. Structures can show the parent of a compound that is named as a salt.

Key:
[1] = system: subcutaneous MC38-hPD-L1 transplanted tumor; experiment: Antibody 1.14.4 monotherapy or in combination with Lenvatinib mesylate on B-hPD-1 humanized mouse MC38-hPD-L1 colon cancer model: tumor volume, tumor weight, TGI, synergy score; format: in vivo
Protocol: (§1) Mouse colon cancer cells MC38 were purchased from Shun Ran (Shanghai) Biotechnology Co., Ltd., and the cells were cultured in a 37° C., 5% CO2 incubator supplemented with Dulbecco's Modified Eagle's medium containing 10% inactivated fetal bovine serum. MC38 cells were genetically modified to overexpress human PD-L1 and knock out murine PD-L1, the modified cells were named as MC38-hPD-L1 cells.
(§2) MC38-hPD-L1 tumor cells were resuspended in 1×PBS to a concentration of 5×10^6 cells/mL. Each of the B-hPD-1 humanized mice was subcutaneously inoculated at the right lateral thorax region with 0.1 mL of the cell suspension, and a total of 85 mice were inoculated. On the 7th day after inoculation, when the average tumor volume reached about 103 mm^3, the mice with moderate tumor volume were selected and randomly divided into 8 groups according to tumor volume, with 7 mice in each group, and the treatment was initiated on the same day.
Tumor volume was measured three times a week in two dimensions using a caliper, and the volume was expressed in mm^3 using the formula: V=0.5 a×b^2 where a and b were the long and short diameters of the tumor, respectively.
(§3) At the termination of the experiment, the animals were photographed to record the tumor bearing state after euthanasia, and the tumors of the mice were weighed and photographed.
TGITV(%)=[1−(Ti−T0)/(Vi−V0)]×100%.
Ti: tumor volume of the treatment group at day i following treatment; T0: tumor volume of the treatment group at day 0 following treatment; Vi: tumor volume of the control group at day i following treatment; V0: tumor volume of the control group at day 0 following treatment.
At the termination of the experiment, the animals were euthanized, the tumors were separated and weighed, and the difference of tumor weight between each group was calculated. Tumor weight inhibition (TGITW) was calculated by the formula:
TGITW (%)=(WC−WT)/[…]×100%; where We means tumor weight of control group, WT means tumor weight of treatment group.
(§4) The original data measured and observed must be recorded. The original data was analyzed and the results were expressed by mean and standard error (Mean±SEM). The data of body weight, tumor volume and tumor weight was statistically analyzed using independent-samples t-test. All data were analyzed using SPSS, P<0.05 is considered to be statistically significant. The results of the analysis were considered both statistical significance and biological significance.
(§5) Synergy score was calculated using the following formula described in Clarke R. Issues in experimental design and endpoint analysis in the study of experimental cytotoxic agents in vivo in breast cancer and other models[J]. Breast Cancer Research & Treatment, 1997, 46(2-3):255-278, which is incorporated by reference in its entirety:
(§6) Synergy score=((A/C)×(B/C))/(AB/C);
(§7) where A is RTV value of drug A; B is RTV value of drug B; C is RTV value of vehicle control; AB is RTV value of combination treatment with A and B respectively. • Synergy score>1 represents synergistic; • Synergy score=1 represents additive; • Synergy score<1 represents antagonistic.
(§8) where V0 and Vt are the average tumor volume at the start of treatment (day 0) and the average tumor volume on a certain time point (day t).

[2] = Body weight of B-hPD-1 mice bearing MC38-hPD-L1 tumors, Embodiment 1 (antibody 1.14.4 / Lenvatinib mesylate); format: in vivo, Mus musculus
Protocol: as §2
(§9) Animals were weighed 2-3 times a week before tumor inoculation, during animal grouping and the treatment, and before the euthanasia.
as §4

[3] = system: subcutaneous MC38-hPD-L1 transplanted tumor; experiment: Antibody 2E5 monotherapy or in combination with Lenvatinib mesylate on B-hPD-1 humanized mouse MC38-hPD-L1 colon cancer model: tumor volume, tumor weight, TGI, synergy score; format: in vivo
Protocol: as §5, §6, §7, §8, §1
as §2, with “of 5×10^5 cells per 0.1 mL.” for “of 5×10^6 cells/mL.”, “cell suspension. When” for “cell suspension, and a total of 85 mice were inoculated. On the 7th day after inoculation, when”, “about 77” for “about 103”, “into 6” for “into 8”, “with 10” for “with 7”
Tumor volume was measured 2-3 times a week in two dimensions using a caliper, and the volume was expressed in mm^3 using the formula: V=0.5 a×b^2 where a and b were the long and short diameters of the tumor, respectively.
as §3
TGITV(%)=[1−(Ti−T0)/(Vi−V0)]×100%. […]
At the termination of the experiment, the animals were euthanized, the tumors were separated and weighed, and the difference of tumor weight between each group was calculated. Tumor weight inhibition (TGITW) was calculated by the formula: […]
as §4, with “significant.” for “significant. The results of the analysis were considered both statistical significance and biological significance.”

[4] = Body weight of B-hPD-1 humanized mice bearing MC38-hPD-L1 tumors, Embodiment 2 (antibody 2E5 / Lenvatinib mesylate); format: in vivo, Mus musculus
Protocol: as §2, with “of 5×10^5 cells per 0.1 mL.” for “of 5×10^6 cells/mL.”, “cell suspension. When” for “cell suspension, and a total of 85 mice were inoculated. On the 7th day after inoculation, when”, “about 77” for “about 103”, “into 6” for “into 8”, “with 10” for “with 7”
as §9
as §4, with “significant.” for “significant. The results of the analysis were considered both statistical significance and biological significance.”

[5] = 17th day after the start of treatment, Antibody 2E5 1 mg/kg i.p., Lenvatinib mesylate 1 mg/kg p.o. QD (G2, G4, G5)

COc1cc2nccc(Oc3ccc(NC(=O)NC4CC4)c(Cl)c3)c2cc1C(N)=O [Lenvatinib mesylate, reference compound]
Tumor volume (mm^3)/Mean ± SEM Day 16 ([1]; 16th day after the start of treatment, antibody 1.14.4 3 mg/kg Q2D i.p., Lenvatinib mesylate 1 mg/kg QD p.o.): 1333 ± 261 mm^3
Tumor volume (mm^3)/Mean ± SEM Day 0 ([1]; Day 0, Antibody 1.14.4 3 mg/kg, Lenvatinib mesylate 1 mg/kg, Table 11): 103 ± 8 mm^3
Tumor volume (mm^3)/Mean ± SEM Day 0 ([1]; Day 0 = day of the start of treatment, antibody 1.14.4 3 mg/kg, Lenvatinib mesylate 1 mg/kg, Table 10): 103 ± 8 mm^3
Tumor volume (mm^3)/Mean ± SEM Day 20 ([1]; Day 20, Antibody 1.14.4 3 mg/kg Q2D i.p., Lenvatinib mesylate 1 mg/kg QD p.o.): 1726 ± 374 mm^3
Tumor weight (g) Mean ± SEM ([1]; Day 20, antibody 1.14.4 3 mg/kg, Lenvatinib mesylate 1 mg/kg, Table 13): 1.244 ± 0.292 g
Tumor weight (g), group Mean ([1]; group mean (7 mice), Day 20, Antibody 1.14.4 3 mg/kg, Lenvatinib mesylate 1 mg/kg): 1.244 g
Tumor weight (g), individual animal ([1]; individual mouse, 20th day after the start of treatment, Antibody 1.14.4 3 mg/kg Q2D i.p., Lenvatinib mesylate 1 mg/kg QD p.o.): 1.039 g and 2.048 g and 2.485 g and 0.652 g and 0.408 g and 1.362 g and 0.715 g
TGITV (%) ([1]; tumor growth inhibition by tumor volume, Day 16, vs hIgG4 control, antibody 1.14.4 3 mg/kg, Lenvatinib mesylate 1 mg/kg): 38.8%
TGITW ([1]; tumor weight inhibition vs hIgG4 control, Day 20, Antibody 1.14.4 3 mg/kg, Lenvatinib mesylate 1 mg/kg): 21.3%
Weight (g)/Mean ± SEM Day 16 ([2]; 16th day after the start of treatment, Antibody 1.14.4 3 mg/kg, Lenvatinib mesylate 1 mg/kg): 22.5 ± 0.2 g
Weight (g)/Mean ± SEM Day 0 ([2]; Day 0 = day of the start of treatment, Antibody 1.14.4 3 mg/kg, Lenvatinib mesylate 1 mg/kg): 19.9 ± 0.3 g
Weight (g) Changes ([2]; Day 16 vs Day 0, Antibody 1.14.4 3 mg/kg, Lenvatinib mesylate 1 mg/kg): +2.6 g
Days after the start of treatment/weight (g), group Mean, day 0 ([2]; group mean (7 mice), day 0, Antibody 1.14.4 3 mg/kg Q2D i.p., Lenvatinib mesylate 1 mg/kg QD p.o.): 19.9 g
Days after the start of treatment/weight (g), group Mean, day 3 ([2]; group mean (7 mice), day 3, Antibody 1.14.4 3 mg/kg Q2D i.p., Lenvatinib mesylate 1 mg/kg QD p.o.): 19.5 g
Days after the start of treatment/weight (g), group Mean, day 6 ([2]; group mean (7 mice), day 6, Antibody 1.14.4 3 mg/kg Q2D i.p., Lenvatinib mesylate 1 mg/kg QD p.o.): 20.3 g
Days after the start of treatment/weight (g), group Mean, day 8 ([2]; group mean (7 mice), day 8, Antibody 1.14.4 3 mg/kg Q2D i.p., Lenvatinib mesylate 1 mg/kg QD p.o.): 20.5 g
Days after the start of treatment/weight (g), group Mean, day 10 ([2]; group mean (7 mice), day 10, Antibody 1.14.4 3 mg/kg Q2D i.p., Lenvatinib mesylate 1 mg/kg QD p.o.): 20.9 g
Days after the start of treatment/weight (g), group Mean, day 12 ([2]; group mean (7 mice), day 12, Antibody 1.14.4 3 mg/kg Q2D i.p., Lenvatinib mesylate 1 mg/kg QD p.o.): 21.2 g
Days after the start of treatment/weight (g), group Mean, day 14 ([2]; group mean (7 mice), day 14, Antibody 1.14.4 3 mg/kg Q2D i.p., Lenvatinib mesylate 1 mg/kg QD p.o.): 22.3 g
Days after the start of treatment/weight (g), group Mean, day 16 ([2]; group mean (7 mice), day 16, Antibody 1.14.4 3 mg/kg Q2D i.p., Lenvatinib mesylate 1 mg/kg QD p.o.): 22.5 g
Days after the start of treatment/weight (g), group Mean, day 19 ([2]; group mean (7 mice), day 19, Antibody 1.14.4 3 mg/kg Q2D i.p., Lenvatinib mesylate 1 mg/kg QD p.o.): 21.9 g
Days after the start of treatment/weight (g), group Mean, day 20 ([2]; group mean (7 mice), day 20, Antibody 1.14.4 3 mg/kg Q2D i.p., Lenvatinib mesylate 1 mg/kg QD p.o.): 22.7 g
Days after the start of treatment/weight (g), individual animal, day 0 ([2]; individual mouse, day 0, Antibody 1.14.4 3 mg/kg Q2D i.p., Lenvatinib mesylate 1 mg/kg QD p.o.): 18.6 g and 19.5 g and 19.4 g and 20.0 g and 20.2 g and 20.8 g (2×)
Days after the start of treatment/weight (g), individual animal, day 3 ([2]; individual mouse, day 3, Antibody 1.14.4 3 mg/kg Q2D i.p., Lenvatinib mesylate 1 mg/kg QD p.o.): 18.8 g and 19.2 g and 18.9 g and 19.7 g and 19.3 g and 20.3 g and 20.2 g
Days after the start of treatment/weight (g), individual animal, day 6 ([2]; individual mouse, day 6, Antibody 1.14.4 3 mg/kg Q2D i.p., Lenvatinib mesylate 1 mg/kg QD p.o.): 19.4 g and 20.1 g and 19.8 g and 20.6 g and 20.3 g and 21.2 g and 20.8 g
Days after the start of treatment/weight (g), individual animal, day 8 ([2]; individual mouse, day 8, Antibody 1.14.4 3 mg/kg Q2D i.p., Lenvatinib mesylate 1 mg/kg QD p.o.): 19.5 g and 20.6 g and 20.4 g and 20.7 g and 20.3 g and 21.0 g (2×)
Days after the start of treatment/weight (g), individual animal, day 10 ([2]; individual mouse, day 10, Antibody 1.14.4 3 mg/kg Q2D i.p., Lenvatinib mesylate 1 mg/kg QD p.o.): 20.2 g and 21.1 g and 20.1 g and 21.5 g and 20.4 g and 21.7 g and 21.4 g
Days after the start of treatment/weight (g), individual animal, day 12 ([2]; individual mouse, day 12, Antibody 1.14.4 3 mg/kg Q2D i.p., Lenvatinib mesylate 1 mg/kg QD p.o.): 20.1 g and 21.1 g (2×) and 21.4 g and 20.7 g and 22.2 g and 21.6 g
Days after the start of treatment/weight (g), individual animal, day 14 ([2]; individual mouse, day 14, Antibody 1.14.4 3 mg/kg Q2D i.p., Lenvatinib mesylate 1 mg/kg QD p.o.): 20.9 g and 22.9 g and 22.0 g (2×) and 22.2 g and 23.0 g (2×)
Days after the start of treatment/weight (g), individual animal, day 16 ([2]; individual mouse, day 16, Antibody 1.14.4 3 mg/kg Q2D i.p., Lenvatinib mesylate 1 mg/kg QD p.o.): 21.6 g and 22.8 g (2×) and 22.6 g and 22.5 g and 21.9 g and 23.0 g
Days after the start of treatment/weight (g), individual animal, day 19 ([2]; individual mouse, day 19, Antibody 1.14.4 3 mg/kg Q2D i.p., Lenvatinib mesylate 1 mg/kg QD p.o.): 21.2 g and 23.0 g (2×) and 21.9 g and 21.4 g and 22.6 g and 20.3 g
Days after the start of treatment/weight (g), individual animal, day 20 ([2]; individual mouse, day 20, Antibody 1.14.4 3 mg/kg Q2D i.p., Lenvatinib mesylate 1 mg/kg QD p.o.): 21.5 g and 23.2 g (3×) and 22.6 g and 22.1 g and 22.9 g
Tumor volume (mm^3)/Mean ± SEM Day 17 [3, 5]: 891 ± 149 mm^3
Tumor weight (g) Mean ± SEM ([3]; Day 17, Antibody 2E5 1 mg/kg, Lenvatinib mesylate 1 mg/kg (G2, G4, G5)): 0.767 ± 0.103 g
Tumor growth inhibition (%) ([3]; by tumor volume, Day 17, vs hIgG4 control, Antibody 2E5 1 mg/kg, Lenvatinib mesylate 1 mg/kg (G2, G4, G5)): 68.2%
Tumor growth inhibition (%) ([3]; tumor weight analysis (Table 21), Day 17, vs IgG4 control, Antibody 2E5 1 mg/kg, Lenvatinib mesylate 1 mg/kg (G2, G4, G5)): 63.2%
Weight (g)/Mean ± SEM Day 17 [4, 5]: 28.0 ± 0.8 g
Weight (g)/Mean ± SEM Day 0 ([4]; Day 0, Antibody 2E5 1 mg/kg i.p., Lenvatinib mesylate 1 mg/kg p.o. QD (G2, G4, G5)): 24.9 ± 0.8 g
Weight (g) Changes ([4]; Day 17 vs Day 0, Antibody 2E5 1 mg/kg, Lenvatinib mesylate 1 mg/kg (G2, G4, G5)): +3.1 g
